PubChem BioAssay AID1963974 (Molecular Pharmacology Branch, DTP, NCI, 2024)

System: 648629-189-R-J1-PDC spheroids with HUVEC/MSC, viability
Assay: Anticancer human tumor 648629-189-R-J1-PDC patient-derived bladder carcinoma cell line growth inhibition [PI3K]
Conditions: for viability, T/C: stronger effect = lower value
Procedure, shortened: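 Three cell types, namely tumor cells, endothelial cells and mesenchymal stem cells, formed each spheroid. Combinations with four PI3K inhibitors were screened at clinically achievable concentrations decreasing by half-log, and spheroid viability was recorded.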

[1] = curve of first compound, second compound 0.0316 µM
[2] = curve of first compound, second compound 0.1 µM
[3] = curve of first compound, second compound 0.316 µM
[4] = curve of first compound, second compound 1 µM
[5] = curve of first compound, second compound 3.16 µM
[6] = curve of first compound, second compound 10 µM
[7] = second compound 0.0316 µM, first compound 0.0316 µM
[8] = second compound 0.0316 µM, first compound 0.1 µM
[9] = second compound 0.1 µM, first compound 0.0316 µM
[10] = second compound 0.1 µM, first compound 0.1 µM
[11] = second compound 0.316 µM, first compound 0.0316 µM
[12] = second compound 0.316 µM, first compound 0.1 µM
[13] = second compound 1 µM, first compound 0.0316 µM
[14] = second compound 1 µM, first compound 0.1 µM
[15] = second compound 3.16 µM, first compound 0.0316 µM
[16] = second compound 3.16 µM, first compound 0.1 µM
[17] = second compound 10 µM, first compound 0.0316 µM
[18] = second compound 10 µM, first compound 0.1 µM
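Also: spheroids exposed to agents for seven days before reading.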
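For viability, T/C in this document: percent of vehicle control luminescence where 100% = DMSO treated spheroids.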

For `Cn1ncnc1[C@H]1c2n[nH]c(=O)c3cc(F)cc(c23)N[C@@H]1c1ccc(F)cc1`, the viability, T/C (compound 0.000316 µM) was 105% [middle of 4 runs], the viability, T/C (compound 0.001 µM) was 105% [middle of 4 runs] and the viability, T/C (compound 0.00316 µM) was 101% [middle of 4 runs]. The viability, T/C (compound 0.01 µM) was 92.9% [middle of 4 runs], the viability, T/C (compound 0.0316 µM) was 73.1% [middle of 4 runs] and the viability, T/C (compound 0.1 µM) was 63.2% [middle of 4 runs]. It also gave an IC50 (curve of compound) of over 100 nM.
With `Cn1ncc(Cl)c1-c1cc(C(=O)NC(CN)Cc2cccc(F)c2)sc1Cl` (stereo unspecified) + Cc1nc(NC(=O)N2CCCC2C(N)=O)sc1-c1ccnc(C(C)(C)C(F)(F)F)c1 the IC50 [1] was 510 nM, the IC50 [2] was 405 nM and the IC50 [3] was 312 nM. For the same compound, the IC50 [4] was 218 nM, the IC50 [5] was 75.9 nM and the IC50 [6] was under 31.6 nM. For the same compound, the viability, T/C [7] was 105%, the viability, T/C [8] was 97% and the viability, T/C (second compound 0.0316 µM, first compound 0.316 µM) was 55.6%. It also gave a viability, T/C (second compound 0.0316 µM, first compound 1 µM) of 34.7%, a viability, T/C (second compound 0.0316 µM, first compound 3.16 µM) of 17.9% and a viability, T/C (second compound 0.0316 µM, first compound 10 µM) of 2.36%. It also gave a viability, T/C [9] of 90.8%, a viability, T/C [10] of 76.8% and a viability, T/C (second compound 0.1 µM, first compound 0.316 µM) of 56.9%. For the same compound, the viability, T/C (second compound 0.1 µM, first compound 1 µM) was 27.6%, the viability, T/C (second compound 0.1 µM, first compound 3.16 µM) was 17.5% and the viability, T/C (second compound 0.1 µM, first compound 10 µM) was 1.87%. It also gave a viability, T/C [11] of 89.6%, a viability, T/C [12] of 73.8% and a viability, T/C (second compound 0.316 µM, first compound 0.316 µM) of 48.2%. For the same compound, the viability, T/C (second compound 0.316 µM, first compound 1 µM) was 28%, the viability, T/C (second compound 0.316 µM, first compound 3.16 µM) was 15.1% and the viability, T/C (second compound 0.316 µM, first compound 10 µM) was 1.73%. For the same compound, the viability, T/C [13] was 72.8%, the viability, T/C [14] was 66.6% and the viability, T/C (second compound 1 µM, first compound 0.316 µM) was 41%. For the same compound, the viability, T/C (second compound 1 µM, first compound 1 µM) was 23.3%, the viability, T/C (second compound 1 µM, first compound 3.16 µM) was 13.6% and the viability, T/C (second compound 1 µM, first compound 10 µM) was 1.42%. For the same compound, the viability, T/C [15] was 55.2%, the viability, T/C [16] was 50.3% and the viability, T/C (second compound 3.16 µM, first compound 0.316 µM) was 34.4%. It also gave a viability, T/C (second compound 3.16 µM, first compound 1 µM) of 20.5%, a viability, T/C (second compound 3.16 µM, first compound 3.16 µM) of 12.2% and a viability, T/C (second compound 3.16 µM, first compound 10 µM) of 1.25%. It also gave a viability, T/C [17] of 36.9%, a viability, T/C [18] of 31.7% and a viability, T/C (second compound 10 µM, first compound 0.316 µM) of 20.4%. For the same compound, the viability, T/C (second compound 10 µM, first compound 1 µM) was 13.5%, the viability, T/C (second compound 10 µM, first compound 3.16 µM) was 7.71% and the viability, T/C (second compound 10 µM, first compound 10 µM) was 0.35%.
With `CC(C)n1nc(-c2ccc3oc(N)nc3c2)c2c(N)ncnc21` + CC(Nc1ncnc2nc[nH]c12)c1cc2cccc(Cl)c2c(=O)n1-c1ccccc1 the IC50 [1] was 73 nM, the IC50 [2] was 63.8 nM and the IC50 [3] was 62.6 nM. For the same compound, the IC50 [4] was 61.5 nM, the IC50 [5] was 55.8 nM and the IC50 [6] was 32.1 nM. For the same compound, the viability, T/C (second compound 0.0316 µM, first compound 0.000316 µM) was 93.2%, the viability, T/C (second compound 0.0316 µM, first compound 0.001 µM) was 96.1% and the viability, T/C (second compound 0.0316 µM, first compound 0.00316 µM) was 87.9%. For the same compound, the viability, T/C (second compound 0.0316 µM, first compound 0.01 µM) was 85.4%, the viability, T/C [7] was 85.8% and the viability, T/C [8] was 36.5%. For the same compound, the viability, T/C (second compound 0.1 µM, first compound 0.000316 µM) was 101%, the viability, T/C (second compound 0.1 µM, first compound 0.001 µM) was 86.5% and the viability, T/C (second compound 0.1 µM, first compound 0.00316 µM) was 101%. It also gave a viability, T/C (second compound 0.1 µM, first compound 0.01 µM) of 97.7%, a viability, T/C [9] of 69.5% and a viability, T/C [10] of 37.5%. It also gave a viability, T/C (second compound 0.316 µM, first compound 0.000316 µM) of 99.5%, a viability, T/C (second compound 0.316 µM, first compound 0.001 µM) of 107% and a viability, T/C (second compound 0.316 µM, first compound 0.00316 µM) of 104%. For the same compound, the viability, T/C (second compound 0.316 µM, first compound 0.01 µM) was 85.8%, the viability, T/C [11] was 73.8% and the viability, T/C [12] was 34.7%. The viability, T/C (second compound 1 µM, first compound 0.000316 µM) was 104%, the viability, T/C (second compound 1 µM, first compound 0.001 µM) was 89.6% and the viability, T/C (second compound 1 µM, first compound 0.00316 µM) was 101%. It also gave a viability, T/C (second compound 1 µM, first compound 0.01 µM) of 85.6%, a viability, T/C [13] of 68.8% and a viability, T/C [14] of 36.5%. It also gave a viability, T/C (second compound 3.16 µM, first compound 0.000316 µM) of 85.8%, a viability, T/C (second compound 3.16 µM, first compound 0.001 µM) of 103% and a viability, T/C (second compound 3.16 µM, first compound 0.00316 µM) of 91.4%. The viability, T/C (second compound 3.16 µM, first compound 0.01 µM) was 84.6%, the viability, T/C [15] was 66.1% and the viability, T/C [16] was 33.8%. It also gave a viability, T/C (second compound 10 µM, first compound 0.000316 µM) of 83.1%, a viability, T/C (second compound 10 µM, first compound 0.001 µM) of 87.1% and a viability, T/C (second compound 10 µM, first compound 0.00316 µM) of 81.4%. It also gave a viability, T/C (second compound 10 µM, first compound 0.01 µM) of 72.3%, a viability, T/C [17] of 50.4% and a viability, T/C [18] of 30.3%.
